In US20260137706A1, “METHODS OF TREATING INFLAMMATORY DISEASES” (INTERLINE THERAPEUTICS, INC., priority 2023, published 2026):

What was measured:
[1] = target: T1, GST-RIPK2 fusion protein (human RIPK2, amino acids 1-310) (Homo sapiens, UniProt O43353); assay: RIPK2 binding competition assay (TR-FRET, Tracer 199 displacement); conditions: 10 nM Tracer 199, 1 nM GST-RIPK2, read-out: RIPK2 IC50
T1 construct: made in house; host or cells: baculovirus infected Sf9 cells
Procedure, shortened: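 IC50 derived from the TR-FRET emission ratio (665/620 nm, 337 nm excitation), normalized with no-inhibitor and no-enzyme controls. Incubation 45 min at 22 °C, pH 7.5 Tris buffer, with final 10 nM tracer, 1 nM Sf9-expressed GST-RIPK2 fragment (aa 1-310) and 0.5 nM Tb-labelled anti-GST.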

[2] = target: T2, binding of His-XIAP(BIR2)-avi fusion protein to GST-RIPK2 fusion protein (RIPK2/XIAP) (Homo sapiens, UniProt O43353); assay: RIPK2-XIAP binding competition PPI assay (TR-FRET); conditions: RIPK2/XIAP binding competition PPI assay; for Emax: Amax, read-out: PPI Amax bin; for IC50: read-out: PPI IC50 bin
T2 construct: made in house; host or cells: baculovirus infected Sf9 cells
Procedure, shortened: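 Compounds (in DMSO, 100-fold stock) incubated 120 min at 23 °C with 1 nM GST-RIPK2 (aa 1-310) and 25 nM His-XIAP(BIR2 aa 152-231)-avi, plus anti-His-XL665 and anti-GST-Tb, in pH 7.5 Tris buffer. Read-out: 665/520 nm emission ratio. Normalized to no-inhibitor (0%) and 50 nM GSK583 (−100%); Amax binned A–D.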

[3] = system: NF-κB pathway (SEAP) in THP1-Dual cells; assay: THP-1 Dual cell SEAP assay (L18-MDP stimulated); assay type: cell-based; conditions: Homo sapiens, THP1-Dual, read-out: NF-κB THP1 IC50 bin
Procedure, shortened: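 IC50 values derive from non-linear regression of % inhibition, calculated against DMSO/L18-MDP-treated wells after media-only subtraction. NF-κB SEAP activity was read at OD 620-655 nm (QUANTI-Blue, 2 h, 37 °C) from supernatants of THP1-Dual cells. Cells had been compound-treated 30 min before overnight (20-24 h) stimulation with 10 ng/mL final L18-MDP.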

T1 sequence (O43353 1-310): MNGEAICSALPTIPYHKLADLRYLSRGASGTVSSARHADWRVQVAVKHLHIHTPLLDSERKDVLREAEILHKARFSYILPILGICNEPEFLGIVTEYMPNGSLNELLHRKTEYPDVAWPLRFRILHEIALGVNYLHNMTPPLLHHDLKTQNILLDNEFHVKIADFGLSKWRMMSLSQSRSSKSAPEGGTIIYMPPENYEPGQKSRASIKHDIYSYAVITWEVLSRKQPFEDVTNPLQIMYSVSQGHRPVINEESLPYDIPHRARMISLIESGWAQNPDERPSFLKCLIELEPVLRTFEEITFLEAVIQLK
T2 sequence (O43353 1-310 limits assumed): as the sequence (O43353 1-310) above

COc1cc2ncc(-c3cnc4c(c3)CCCN4)n2cc1S(=O)(=O)C(C)(C)C [Example 85, 6-(6-(tert-butylsulfonyl)-7-methoxyimidazo[1,2-a]pyridin-3-yl)-1,2,3,4-tetrahydro-1,8-naphthyridine]
IC50 [1]: > 20 nM | Emax [2]: 30 to 55% | IC50 [2]: > 20 nM | IC50 [3]: > 1000 nM

Nc1cc(-c2cnn3ccc(C(F)(F)F)cc23)cc(F)n1 [Example 3, 6-fluoro-4-(5-(trifluoromethyl)pyrazolo[1,5-a]pyridin-3-yl)pyridin-2-amine]
IC50 [1]: > 20 nM | Emax [2]: < 30% | IC50 [2]: > 20 nM | IC50 [3]: 250 to 1000 nM

COc1cc2ncc(-c3ccc(N)nc3F)n2cc1S(=O)(=O)C1CC1 [Example 66, 5-(6-(cyclopropylsulfonyl)-7-methoxyimidazo[1,2-a]pyridin-3-yl)-6-fluoropyridin-2-amine]
IC50 [1]: > 20 nM | Emax [2]: > 80% | IC50 [2]: > 20 nM | IC50 [3]: > 1000 nM

COc1cc2ncc(-c3ccc4nc(N)n(C)c4c3)n2cc1S(=O)(=O)C(C)(C)C [Example 100, 6-(6-(tert-butylsulfonyl)-7-methoxyimidazo[1,2-a]pyridin-3-yl)-1-methyl-1H-benzo[d]imidazol-2-amine]
IC50 [1]: 2.5 to 20 nM | Emax [2]: < 30% | IC50 [2]: > 20 nM | IC50 [3]: > 1000 nM

CCS(=O)(=O)Nc1cc(-c2cnc3cc(OC)c(S(=O)(=O)C(C)(C)CO)cn23)cc(Cl)c1OC [Example 128, N-(3-chloro-5-(6-((1-hydroxy-2-methylpropan-2-yl)sulfonyl)-7-methoxyimidazo[1,2-a]pyridin-3-yl)-2-methoxyphenyl)ethanesulfonamide]
IC50 [1]: 1 to 2.5 nM | Emax [2]: 55 to 80% | IC50 [2]: 1 to 2.5 nM | IC50 [3]: 50 to 250 nM

CC(C)(C)S(=O)(=O)c1cn2c(-c3cc(F)c(N)nc3F)cnc2cc1OCC(F)CO (stereo not drawn) [Example 203, 3-((3-(6-amino-2,5-difluoropyridin-3-yl)-6-(tert-butylsulfonyl)imidazo [1,2-a]pyridin-7-yl)oxy)-2-fluoropropan-1-ol]
IC50 [1]: 1 to 2.5 nM | Emax [2]: > 80% | IC50 [2]: 1 to 2.5 nM | IC50 [3]: 50 to 250 nM

COc1cc2nc(N)c(-c3cc(F)c(N)nc3F)n2cc1S(=O)(=O)C(C)(C)C [Example 40, 3-(6-amino-2,5-difluoropyridin-3-yl)-6-(tert-butylsulfonyl)-7-methoxyimidazo[1,2-a]pyridin-2-amine]
IC50 [1]: > 20 nM | Emax [2]: 55 to 80% | IC50 [2]: > 20 nM | IC50 [3]: > 1000 nM

COc1cc2ncc(-c3cc(F)c(OC)c4nn(CCO)cc34)n2cc1S(=O)(=O)C(C)(C)C [Example 122, 2-(4-(6-(tert-butylsulfonyl)-7-methoxyimidazo[1,2-a]pyridin-3-yl)-6-fluoro-7-methoxy-2HI-indazol-2-yl)ethan-1-ol]
IC50 [1]: > 20 nM | Emax [2]: < 30% | IC50 [2]: > 20 nM | IC50 [3]: > 1000 nM

COc1cc2ncc(-c3cc(F)c(OC)c(NS(=O)(=O)c4cnn(C)c4)c3)n2cc1S(=O)(=O)C(C)(C)C [Example 135, N-(5-(6-(tert-butylsulfonyl)-7-methoxyimidazo[1,2-a]pyridin-3-yl)-3-fluoro-2-methoxyphenyl)-1-methyl-1H-pyrazole-4-sulfonamide]
IC50 [1]: < 1 nM | Emax [2]: > 80% | IC50 [2]: < 1 nM | IC50 [3]: < 50 nM

Cc1nc(N)c(F)cc1-c1cnc2cc(OCCO)c(S(=O)(=O)C(C)(C)C)cn12 [Example 51, 2-((3-(6-amino-5-fluoro-2-methylpyridin-3-yl)-6-(tert-butylsulfonyl)imidazo[1,2-a]pyridin-7-yl)oxy)ethan-1-ol]
IC50 [1]: > 20 nM | Emax [2]: < 30% | IC50 [2]: > 20 nM | IC50 [3]: > 1000 nM

COc1cc2ncc(-c3ccc4nn(C)cc4c3)n2cc1S(=O)(=O)C(C)(C)C [Example 111, 5-(6-(tert-butylsulfonyl)-7-methoxyimidazo[1,2-a]pyridin-3-yl)-2-methyl-2H-indazole]
IC50 [1]: > 20 nM | Emax [2]: < 30% | IC50 [2]: > 20 nM | IC50 [3]: > 1000 nM

COc1cc2ncc(-c3cc(F)c(OC)c(NC(=O)c4cnn(C)c4)c3)n2cc1S(=O)(=O)C(C)(C)C [Example 296, N-(5-(6-(tert-butylsulfonyl)-7-methoxyimidazo[1,2-a]pyridin-3-yl)-3-fluoro-2-methoxyphenyl)-1-methyl-1H-pyrazole-4-carboxamide]
IC50 [1]: > 20 nM | Emax [2]: > 80% | IC50 [2]: > 20 nM | IC50 [3]: > 1000 nM
